# Measured values from ChEMBL document CHEMBL3885861, “Open TG-GATES”.
# Organism: Rattus norvegicus
# Test: Open TG-GATES - Regimen: Single
# Type: toxicity, organism-based, Sprague-Dawley
# Design: regimen Single, gender Male, age 6 weeks
# Conditions: in vivo, po, 150 mg/kg, route gavage, dose level Middle; for APTT / Bas / Eos / Fbg / Hb / Ht / Lym / MCH / MCHC / MCV / Mono / Neu / PT / Plat / RBC / Ret / WBC: tissue Blood; for KIDNEY_L / KIDNEY_R / KIDNEY_TOTAL: tissue Kidney; for LIVER: tissue Liver; for A/G / ALP / ALT / AST / BUN / CRE / Ca / Cl / DBIL / GLC / IP / K / LDH / Na / PL / RALB / TBIL / TC / TG / TP / gamma-GTP: tissue Plasma
structure (smiles),measurement,setting,value
CN1C(=O)CCS(=O)(=O)C1c1ccc(Cl)cc1 (configuration not stated) [CHLORMEZANONE],TERMINAL_BW,3 h,230 g
same,APTT,3 h,15.9 s
same,Bas,3 h,0%
same,Eos,3 h,1%
same,Fbg,3 h,314.4 mg/dL
same,Hb,3 h,13.5 g/dL
same,Ht,3 h,39.4%
same,Lym,3 h,77%
same,MCH,3 h,21.7 pg
same,MCHC,3 h,34.1%
same,MCV,3 h,63.6 fL
same,Mono,3 h,2.8%
same,Neu,3 h,18.4%
same,PT,3 h,13.1 s
same,Plat,3 h,123.1 x10_4/uL
same,RBC,3 h,620.2 x10_4/ul
same,Ret,3 h,7.9%
same,WBC,3 h,84.3 x10_2/uL
same,KIDNEY_L,3 h,1 g
same,KIDNEY_R,3 h,1 g
same,KIDNEY_TOTAL,3 h,1.9 g
same,LIVER,3 h,10.6 g
same,A/G,3 h,0.9
same,ALP,3 h,1400.8 IU/L
same,ALT,3 h,49.6 IU/L
same,AST,3 h,75.6 IU/L
same,BUN,3 h,11.6 mg/dL
same,CRE,3 h,0.2 mg/dL
same,Ca,3 h,11.6 mg/dL
same,Cl,3 h,104.2 meq/L
same,DBIL,3 h,0.018 mg/dL
same,GLC,3 h,182.2 mg/dL
same,IP,3 h,9.5 mg/dL
same,K,3 h,4.3 meq/L
same,LDH,3 h,56.8 IU/L
same,Na,3 h,140.6 meq/L
same,PL,3 h,157.6 mg/dL
same,RALB,3 h,2.6 g/dL
same,TBIL,3 h,0.034 mg/dL
same,TC,3 h,87 mg/dL
same,TG,3 h,95.6 mg/dL
same,TP,3 h,5.6 g/dL
same,gamma-GTP,3 h,1 IU/L
same,TERMINAL_BW,6 h,229.6 g
same,APTT,6 h,17.8 s
same,Bas,6 h,0%
same,Eos,6 h,0.6%
same,Fbg,6 h,295 mg/dL
same,Hb,6 h,13.8 g/dL
same,Ht,6 h,41.1%
same,Lym,6 h,77.8%
same,MCH,6 h,22.1 pg
same,MCHC,6 h,33.6%
same,MCV,6 h,65.8 fL
same,Mono,6 h,3.8%
same,Neu,6 h,16.8%
same,PT,6 h,13.6 s
same,Plat,6 h,119.1 x10_4/uL
same,RBC,6 h,624.4 x10_4/ul
same,Ret,6 h,8.5%
same,WBC,6 h,70.9 x10_2/uL
same,KIDNEY_L,6 h,1 g
same,KIDNEY_R,6 h,1 g
same,KIDNEY_TOTAL,6 h,2 g
same,LIVER,6 h,10.1 g
same,A/G,6 h,0.9
same,ALP,6 h,1441.2 IU/L
same,ALT,6 h,41.6 IU/L
same,AST,6 h,71.8 IU/L
same,BUN,6 h,9.2 mg/dL
same,CRE,6 h,0.2 mg/dL
same,Ca,6 h,11.7 mg/dL
same,Cl,6 h,105.6 meq/L
same,DBIL,6 h,0.014 mg/dL
same,GLC,6 h,184.2 mg/dL
same,IP,6 h,11.2 mg/dL
same,K,6 h,4.5 meq/L
same,LDH,6 h,61.4 IU/L
same,Na,6 h,142.8 meq/L
same,PL,6 h,152 mg/dL
same,RALB,6 h,2.7 g/dL
same,TBIL,6 h,0.038 mg/dL
same,TC,6 h,76 mg/dL
same,TG,6 h,57.2 mg/dL
same,TP,6 h,5.7 g/dL
same,gamma-GTP,6 h,1.6 IU/L
same,TERMINAL_BW,9 h,228.1 g
same,APTT,9 h,14 s
same,Bas,9 h,0%
same,Eos,9 h,0.6%
same,Fbg,9 h,329.4 mg/dL
same,Hb,9 h,13.1 g/dL
same,Ht,9 h,38.8%
same,Lym,9 h,74.2%
same,MCH,9 h,21.8 pg
same,MCHC,9 h,33.8%
same,MCV,9 h,64.4 fL
same,Mono,9 h,2.8%
same,Neu,9 h,21.2%
same,PT,9 h,13.3 s
same,Plat,9 h,118.2 x10_4/uL
same,RBC,9 h,603 x10_4/ul
same,Ret,9 h,8%
same,WBC,9 h,89.8 x10_2/uL
same,KIDNEY_L,9 h,1 g
same,KIDNEY_R,9 h,1 g
same,KIDNEY_TOTAL,9 h,1.9 g
same,LIVER,9 h,9 g
same,A/G,9 h,0.9
same,ALP,9 h,1520.8 IU/L
same,ALT,9 h,38.6 IU/L
same,AST,9 h,70.6 IU/L
same,BUN,9 h,9.8 mg/dL
same,CRE,9 h,0.2 mg/dL
same,Ca,9 h,11.3 mg/dL
same,Cl,9 h,105 meq/L
same,DBIL,9 h,0.02 mg/dL
same,GLC,9 h,194.6 mg/dL
same,IP,9 h,11.2 mg/dL
same,K,9 h,4 meq/L
same,LDH,9 h,55.8 IU/L
same,Na,9 h,142.8 meq/L
same,PL,9 h,150.2 mg/dL
same,RALB,9 h,2.6 g/dL
same,TBIL,9 h,0.04 mg/dL
same,TC,9 h,78.4 mg/dL
same,TG,9 h,67.2 mg/dL
same,TP,9 h,5.5 g/dL
same,gamma-GTP,9 h,1.4 IU/L
same,TERMINAL_BW,24 h,227.1 g
same,APTT,24 h,17.4 s
same,Bas,24 h,0%
same,Eos,24 h,1%
same,Fbg,24 h,271.6 mg/dL
same,Hb,24 h,13.4 g/dL
same,Ht,24 h,39.4%
same,Lym,24 h,77%
same,MCH,24 h,21.9 pg
same,MCHC,24 h,34.1%
same,MCV,24 h,64.2 fL
same,Mono,24 h,3.4%
same,Neu,24 h,17.8%
same,PT,24 h,13.3 s
same,Plat,24 h,123.4 x10_4/uL
same,RBC,24 h,615.2 x10_4/ul
same,Ret,24 h,7.5%
same,WBC,24 h,94.1 x10_2/uL
same,KIDNEY_L,24 h,1 g
same,KIDNEY_R,24 h,1 g
same,KIDNEY_TOTAL,24 h,2 g
same,LIVER,24 h,10.9 g
same,A/G,24 h,0.9
same,ALP,24 h,1673.6 IU/L
same,ALT,24 h,50.4 IU/L
same,AST,24 h,82.4 IU/L
same,BUN,24 h,15.6 mg/dL
same,CRE,24 h,0.2 mg/dL
same,Ca,24 h,11.4 mg/dL
same,Cl,24 h,105.4 meq/L
same,DBIL,24 h,0.022 mg/dL
same,GLC,24 h,192 mg/dL
same,IP,24 h,7.6 mg/dL
same,K,24 h,4.2 meq/L
same,LDH,24 h,69.4 IU/L
same,Na,24 h,142 meq/L
same,PL,24 h,138.4 mg/dL
same,RALB,24 h,2.6 g/dL
same,TBIL,24 h,0.028 mg/dL
same,TC,24 h,79.8 mg/dL
same,TG,24 h,119 mg/dL
same,TP,24 h,5.6 g/dL
same,gamma-GTP,24 h,1 IU/L
